Measured values from patent US20200165194A1, “ADDITIVE COMPOSITION FOR CULTURE MEDIUM, ADDITIVE COMPOUND FOR CULTURE MEDIUM, AND METHOD FOR CULTURE OF CELLS OR TISSUE USING SAME” (NISSAN CHEMICAL CORPORATION, priority 2017, published 2020).

Columns and labels:
[1] = tested on: Canine kidney renal tubule epithelial cells (MDCK cells); test: MDCK cells-1: Cyst formation on Matrigel, Cyst area by fluorescence microscope (Experimental Example 7); assay type: cell-based; details: 10 μM, 7 days
Experimental: Canine kidney renal tubule epithelial cells (MDCK cells, manufactured by DS PHARMA BIO MEDICAL) were precultured in EMEM medium containing 10% FBS and 1% NEAA. Cold Matrigel (registered trade mark) Matrix GFR (manufactured by Corning) was spread on a 24-well plate by 50 μL and fixed by incubating at 37° C. for 15 min. The aforementioned MDCK cells were suspended in a medium at a concentration of 20000 cells/mL, cold Matrigel (registered trade mark) Matrix GFR was added at […] and seeded at 1 mL/well. […] As a control (compound no-addition), DMSO was added at a final concentration of 0.1%. Seven days later, the cells were washed with PBS (1 mL/well), 4% paraformaldehyde/PBS (manufactured by Wako Pure Chemical Industries, Ltd.) was added (1 mL/well) and fixed at room temperature for 20 min. Thereafter, the supernatant was removed, IF buffer (0.2% Triton X-100 (manufactured by Sigma-Aldrich), 0.05% Tween 20 (manufactured by Sigma-Aldrich)-containing PBS) were added at 1 mL/well, stood for 30 min and removed. […] After washing 3 times every 5 min with IF buffer, VECTASHIELD Mounting Medium with DAPI (manufactured by Vector Laboratories) was added dropwise, and the cells were observed and analyzed with a fluorescence microscope (ArrayScan, manufactured by Thermo Fisher Scientific).

[2] = tested on: mouse small intestinal organoid (Crypt); test: Small intestine organoid formation in Matrigel (Experimental Example 4); assay type: cell-based; details: 5 μM, 7 days
Experimental: About 20 cm of the mouse small intestine was excised, and the adipose tissue and vascular tissue were removed on ice. The contents were sufficiently washed with PBS, cut open with scissors, and fragmented to about 2 mm. They were washed 20 times with 15 mL of PBS and the supernatant was removed. 25 mL of Gentle Cell Dissociation Reagent (manufactured by STEMCELL) was added, and the mixture was incubated at room temperature for 15 min while stirring at 20 rpm. The supernatant was removed, 10 mL of cold 0.1% BSA/PBS was added to the precipitate, and pipetting was performed three times. The supernatant was filtered with a 70 μm cell strainer (manufactured by BD Bioscience), and the filtrate was collected. Similarly, addition of 0.1% BSA/PBS to the remaining precipitate, pipetting, and filtration were repeated three times, and thus series of the four filtrates were prepared. Each filtrate was centrifuged at 290 g for 5 min at 4° C. After removing the supernatant, the cells were resuspended in 10 mL of cold 0.1% BSA/PBS and centrifuged at 200 g for 3 min at 4° C. The supernatant was removed, 10 mL of DMEM/F12 (manufactured by Wako Pure Chemical Industries, Ltd.) was added and the cells were suspended. 1 mL was separated and observed under a microscope. A filtrate having a sufficient intestinal fragment (Crypt) was selected, and the number of Crypt was counted using a hemocytometer. Cold Matrigel (registered trade mark) Matrix GFR(manufactured by Corning) in an equal amount to the cell suspension was added, mixed, and quickly dispensed into a 24-well plate warmed to 37° C. at 500 crypts/[…]/well. The plate was allowed to stand at 37° C. for 10 min to complete gelation. […] As a control, a well with no addition of the compound was prepared. After culturing for 7 days, the number and diameter of the formed small intestinal organoids were measured under a microscope, and the comparison results with no addition (control) are shown in the ninth table.

**Q.** Which results are given for `CCC(=NNC(=O)C(CC)Nc1ccccc1)c1ccc(O)c(C)c1O` (centres unmarked) [k-1:H-7]?
**A.** increase of the area per one Cyst ([1]; Control as 100): ≥ 20%; Cyst area (relative value) ([1]; control = 100): 124; organoid diameter (μm) ([2]; control 130 ± 18): 153 ± 21 μm; organoid number (relative value) ([2]; control = 1): 2.5; organoid formation (in words) ([2]; mouse small intestinal organoid culture): promotes organoid formation
